Test results: patent publication US10696615B2, “Prenylated hydroxystilbenes” (The University of Sydney, priority 2011, dated 2020)

What was measured:
HL-60 (TB) = experiment: NCI in vitro cancer screen, Leukemia; format: cell-based, human; details: HL-60 (TB)
K-562 = experiment: NCI in vitro cancer screen, Leukemia; format: cell-based, human; details: K-562
MOLT-4 = experiment: NCI in vitro cancer screen, Leukemia; format: cell-based, human; details: MOLT-4
A549/ATCC = experiment: NCI in vitro cancer screen, Non-Small Cell Lung Cancer; format: cell-based, human
HOP-92 = experiment: as above; format: cell-based, human; details: HOP-92
NCI-H226 = experiment: as above; format: cell-based, human; details: NCI-H226
NCI-H322M = experiment: as above; format: cell-based, human
NCI-H522 = experiment: as above; format: cell-based, human; details: Homo sapiens, NCI-H522
COLO 205 = experiment: NCI in vitro cancer screen, Colon Cancer; format: cell-based, human; details: COLO 205
HCT-116 = experiment: NCI in vitro cancer screen, Colon Cancer; format: cell-based, human; details: HCT-116
HT29 = experiment: NCI in vitro cancer screen, Colon Cancer; format: cell-based, human; details: HT29
KM12 = experiment: NCI in vitro cancer screen, Colon Cancer; format: cell-based, human; details: KM12
SW-620 = experiment: NCI in vitro cancer screen, Colon Cancer; format: cell-based, human; details: SW-620
SF-295 = experiment: NCI in vitro cancer screen, CNS Cancer; format: cell-based, human; details: SF-295
SF-539 = experiment: NCI in vitro cancer screen, CNS Cancer; format: cell-based; details: SF-539
SNB-19 = experiment: NCI in vitro cancer screen, CNS Cancer; format: cell-based, human; details: SNB-19
SNB-75 = experiment: NCI in vitro cancer screen, CNS Cancer; format: cell-based, human; details: SNB-75
U251 = experiment: NCI in vitro cancer screen, CNS Cancer; format: cell-based, human; details: U251
MALME-3M = experiment: NCI in vitro cancer screen, Melanoma; format: cell-based, human
UACC-257 = experiment: NCI in vitro cancer screen, Melanoma; format: cell-based, human; details: UACC-257
IGROV1 = experiment: NCI in vitro cancer screen, Ovarian Cancer; format: cell-based, human; details: IGROV1
OVCAR-3 = experiment: NCI in vitro cancer screen, Ovarian Cancer; format: cell-based, human; details: Homo sapiens, OVCAR-3
OVCAR-4 = experiment: NCI in vitro cancer screen, Ovarian Cancer; format: cell-based, human; details: OVCAR-4
OVCAR-5 = experiment: NCI in vitro cancer screen, Ovarian Cancer; format: cell-based, human; details: OVCAR-5
ADR-RES (NCI/ADR-RES) = experiment: NCI in vitro cancer screen, Ovarian Cancer; format: cell-based, human; details: Homo sapiens, NCI/ADR-RES
ACHN = experiment: NCI in vitro cancer screen, Renal Cancer; format: cell-based, human
CAKI-1 = experiment: NCI in vitro cancer screen, Renal Cancer; format: cell-based, human; details: CAKI-1
UO-31 = experiment: NCI in vitro cancer screen, Renal Cancer; format: cell-based, human; details: UO-31
DU-145 = experiment: NCI in vitro cancer screen, Prostate Cancer; format: cell-based, human; details: DU-145
MCF7 = experiment: NCI in vitro cancer screen, Breast Cancer; format: cell-based, human; details: MCF7
[1] = tested on: MDA-MB-231 (MDA-MB-231/ATCC); experiment: NCI in vitro cancer screen, Breast Cancer; format: cell-based, human; details: MDA-MB-231
[2] = Homo sapiens, read-out: LC50 (the source's name)
[3] = read-out: LC50 (the source's name)

SMILES: COc1cc(/C=C/c2cc(O)cc(OC)c2CC=C(C)C)ccc1O [USYDS1, (E)-2-(3-methyl-2-buten-1-yl)-4′,5-dihydroxy-3,3′-dimethoxystilbene]
- TGI (HL-60 (TB)): 0.06 µM
- GI50 (HL-60 (TB); Homo sapiens): 0.02 µM
- CC50 (HL-60 (TB); [2]): 68.9 µM
- GI50 (K-562; Homo sapiens, K562): 0.04 µM
- CC50 (K-562; Homo sapiens, K562, read-out: LC50 (the source's name)): > 100 µM
- TGI (K-562): 11.7 µM
- GI50 (MOLT-4; Homo sapiens): 0.43 µM
- CC50 (MOLT-4; [2]): 80.2 µM
- TGI (MOLT-4): 12.3 µM
- TGI (A549/ATCC): 11.3 µM
- GI50 (A549/ATCC; Homo sapiens): 0.5 µM
- CC50 (A549/ATCC; [2]): 40.3 µM
- TGI (HOP-92): 12.3 µM
- GI50 (HOP-92; Homo sapiens): 0.06 µM
- CC50 (HOP-92; [2]): 39.6 µM
- GI50 (NCI-H226; Homo sapiens): 3.13 µM
- LC50 (50% lethal concentration) (NCI-H226; Homo sapiens): 45.6 µM
- TGI (NCI-H226): 13.3 µM
- TGI (NCI-H322M): 25.7 µM
- GI50 (NCI-H322M; Homo sapiens): 11.8 µM
- LC50 (50% lethal concentration) (NCI-H322M; Homo sapiens): 55.9 µM
- GI50 (NCI-H522): 0.02 µM
- CC50 (NCI-H522; [3]): 44.8 µM
- TGI (COLO 205): 16.1 µM
- GI50 (COLO 205; Homo sapiens): 3.86 µM
- CC50 (COLO 205; [2]): 42.6 µM
- TGI (HCT-116): 11.1 µM
- GI50 (HCT-116; Homo sapiens): 0.3 µM
- LC50 (concentration killing 50% of cells) (HCT-116; Homo sapiens): 40.4 µM
- TGI (HT29): 15.3 µM
- GI50 (HT29; Homo sapiens, HT-29): 4.73 µM
- CC50 (HT29; Homo sapiens, HT-29, read-out: LC50 (the source's name)): 44.4 µM
- GI50 (KM12; Homo sapiens): 0.32 µM
- CC50 (KM12; [2]): 46.7 µM
- TGI (KM12): 13.9 µM
- GI50 (SW-620; Homo sapiens): 0.04 µM
- CC50 (SW-620; [2]): 44.3 µM
- TGI (SW-620): 15.1 µM
- GI50 (SF-295; Homo sapiens): 0.65 µM
- CC50 (SF-295; [2]): 55.7 µM
- TGI (SF-295): 16.2 µM
- GI50 (SF-539; Homo sapiens): 0.04 µM
- CC50 (SF-539; [2]): 48.6 µM
- TGI (SF-539): 14.4 µM
- GI50 (SNB-19; Homo sapiens): 0.17 µM
- CC50 (SNB-19; [2]): 51.5 µM
- TGI (SNB-19): 19.3 µM
- GI50 (SNB-75; Homo sapiens): 0.03 µM
- CC50 (SNB-75; [2]): 72 µM
- TGI (SNB-75): 20.2 µM
- GI50 (U251; Homo sapiens, U-251): 0.37 µM
- CC50 (U251; Homo sapiens, U-251, read-out: LC50 (the source's name)): 36 µM
- TGI (U251): 10.9 µM
- GI50 (MALME-3M; Homo sapiens, Malme-3M): 3.47 µM
- CC50 (MALME-3M; Homo sapiens, Malme-3M, read-out: LC50 (the source's name)): 78.3 µM
- TGI (MALME-3M; MALME-3M): 25.8 µM
- GI50 (UACC-257; Homo sapiens): 2.53 µM
- CC50 (UACC-257; [2]): 45.4 µM
- TGI (UACC-257): 17.7 µM
- GI50 (IGROV1; Homo sapiens, IGROV-1): 2.65 µM
- CC50 (IGROV1; Homo sapiens, IGROV-1, read-out: LC50 (the source's name)): > 100 µM
- TGI (IGROV1): 27.9 µM
- GI50 (OVCAR-3): 0.26 µM
- CC50 (OVCAR-3; [3]): 37.3 µM
- GI50 (OVCAR-4; Homo sapiens): 0.58 µM
- CC50 (OVCAR-4; [2]): 52 µM
- TGI (OVCAR-4): 18.4 µM
- GI50 (OVCAR-5; Homo sapiens): 6 µM
- CC50 (OVCAR-5; [2]): 55.3 µM
- TGI (OVCAR-5): 21.4 µM
- GI50 (ADR-RES (NCI/ADR-RES)): 0.03 µM
- CC50 (ADR-RES (NCI/ADR-RES); [3]): 70.7 µM
- TGI (ACHN): 14.0 µM
- GI50 (ACHN; Homo sapiens): 0.07 µM
- CC50 (ACHN; [2]): 44.6 µM
- TGI (CAKI-1): 39.3 µM
- GI50 (CAKI-1; Homo sapiens): 4.77 µM
- CC50 (CAKI-1; [2]): > 100 µM
- GI50 (UO-31; Homo sapiens): 0.25 µM
- CC50 (UO-31; [2]): 51.3 µM
- TGI (UO-31): 16.0 µM
- TGI (DU-145): 12.7 µM
- GI50 (DU-145; Homo sapiens): 0.06 µM
- CC50 (DU-145; [2]): 38.6 µM
- GI50 (MCF7; Homo sapiens): 0.23 µM
- CC50 (MCF7; [2]): 52.9 µM
- TGI (MCF7): 13.0 µM
- GI50 ([1]; Homo sapiens): 0.15 µM
- CC50 [1, 2]: 61.2 µM
- TGI [1]: 2.43 µM
